{
  "source": "patent US7169982B2",
  "about": "“Starch” (Basf Plant Science GmbH, priority 2001, dated 2007)",
  "origin": "cited, not measured here",
  "key": {"[1]": {"system": "maize starch synthase SSIIb-2 (SEQ ID NO:7) mutant E391D", "settings": "read-out: Km (ADPGlc)"}, "[2]": {"system": "maize starch synthase SSIIa (SEQ ID NO:8) mutant K193Q", "settings": "for Km: read-out: Km for ADPG"}, "[3]": {"system": "maize starch synthase SSIIa (SEQ ID NO:8) mutant K497Q", "settings": "for Km: read-out: Km for ADPG"}, "[4]": {"system": "maize starch synthase SSIIb-2 (SEQ ID NO:7) mutant D21E", "settings": "amylopectin as primer, 5 mg/ml; read-out: Km (ADPGlc)"}, "[5]": {"system": "maize starch synthase SSIIb-2 (SEQ ID NO:7) mutant D139E", "settings": "read-out: Km (ADPGlc)"}, "[6]": {"system": "maize starch synthase SSIIa (SEQ ID NO:8) mutant K193R", "settings": "for Km: read-out: Km for ADPG"}, "[7]": {"system": "maize starch synthase SSIIb-2 (SEQ ID NO:7) mutant D21N", "settings": "read-out: Km (ADPGlc)"}, "[8]": {"system": "maize starch synthase SSIIa, wild-type, SEQ ID NO:8", "settings": "for Km: read-out: Km for ADPG"}, "[9]": {"system": "maize starch synthase SSIIa (SEQ ID NO:8) mutant K193E", "settings": "for Km: read-out: Km for ADPG"}, "[10]": {"system": "maize starch synthase SSIIb-2 (N-terminally truncated form of mSSIIb produced in E. coli), non-mutant, SEQ ID NO:7", "settings": "read-out: Km (ADPGlc)"}},
  "note": "Read-outs that look alike come from different tables or passages of the source.",
  "data": [
    {"smiles": "Nc1ncnc2c1ncn2[C@@H]1O[C@H](COP(=O)(O)OP(=O)(O)O[C@H]2O[C@H](CO)[C@@H](O)[C@H](O)[C@H]2O)[C@@H](O)[C@H]1O", "note": "[ADPGlc, ADP-glucose]", "values": [
      {"measurement": "Km", "setting": "[1]; amylopectin as primer, 5 mg/ml", "value": "1370 ± 140", "unit": "µM"},
      {"measurement": "Km", "setting": "[1]; glycogen as primer, 20 mg/ml", "value": "1180 ± 140", "unit": "µM"},
      {"measurement": "Vmax", "setting": "[2]; amylopectin as primer", "value": "17.4 ± 1.58", "unit": "μmol/min/mg protein"},
      {"measurement": "Km", "setting": "[2]; amylopectin as primer", "value": "130 ± 10", "unit": "µM"},
      {"measurement": "Vmax", "setting": "[2]; glycogen as primer", "value": "6.20 ± 0.01", "unit": "μmol/min/mg protein"},
      {"measurement": "Km", "setting": "[2]; glycogen as primer", "value": "100 ± 10", "unit": "µM"},
      {"measurement": "Vmax", "setting": "[3]; amylopectin as primer", "value": "13.5 ± 0.21", "unit": "μmol/min/mg protein"},
      {"measurement": "Km", "setting": "[3]; amylopectin as primer", "value": "5620 ± 230", "unit": "µM"},
      {"measurement": "Vmax", "setting": "[3]; glycogen as primer", "value": "23.8 ± 2.5", "unit": "μmol/min/mg protein"},
      {"measurement": "Km", "setting": "[3]; glycogen as primer", "value": "6910 ± 330", "unit": "µM"},
      {"measurement": "Km", "setting": "[4]", "value": "130 ± 30", "unit": "µM"},
      {"measurement": "Km", "setting": "[5]; amylopectin as primer, 5 mg/ml", "value": "90 ± 30", "unit": "µM"},
      {"measurement": "Km", "setting": "[5]; glycogen as primer, 20 mg/ml", "value": "70 ± 20", "unit": "µM"},
      {"measurement": "Vmax", "setting": "[6]; amylopectin as primer", "value": "18.2 ± 0.91", "unit": "μmol/min/mg protein"},
      {"measurement": "Km", "setting": "[6]; amylopectin as primer", "value": "150 ± 10", "unit": "µM"},
      {"measurement": "Vmax", "setting": "[6]; glycogen as primer", "value": "42.27 ± 3.01", "unit": "μmol/min/mg protein"},
      {"measurement": "Km", "setting": "[6]; glycogen as primer", "value": "150 ± 20", "unit": "µM"},
      {"measurement": "Km", "setting": "[7]; amylopectin as primer, 5 mg/ml", "value": "1580 ± 110", "unit": "µM"},
      {"measurement": "Km", "setting": "[7]; glycogen as primer, 20 mg/ml", "value": "1480 ± 30", "unit": "µM"},
      {"measurement": "Vmax", "setting": "[8]; amylopectin as primer", "value": "49.9 ± 4.06", "unit": "μmol/min/mg protein"},
      {"measurement": "Km", "setting": "[8]; amylopectin as primer", "value": "110 ± 10", "unit": "µM"},
      {"measurement": "Vmax", "setting": "[8]; glycogen as primer", "value": "34.47 ± 1.70", "unit": "μmol/min/mg protein"},
      {"measurement": "Km", "setting": "[8]; glycogen as primer", "value": "120 ± 10", "unit": "µM"},
      {"measurement": "Vmax", "setting": "[9]; amylopectin as primer", "value": "10.53 ± 0.5", "unit": "μmol/min/mg protein"},
      {"measurement": "Km", "setting": "[9]; amylopectin as primer", "value": "220 ± 10", "unit": "µM"},
      {"measurement": "Vmax", "setting": "[9]; glycogen as primer", "value": "25.45 ± 0.08", "unit": "μmol/min/mg protein"},
      {"measurement": "Km", "setting": "[9]; glycogen as primer", "value": "170 ± 20", "unit": "µM"},
      {"measurement": "Km", "setting": "[10]; amylopectin as primer, 5 mg/ml", "value": "160 ± 30", "unit": "µM"},
      {"measurement": "Km", "setting": "[10]; glycogen as primer, 20 mg/ml", "value": "130 ± 20", "unit": "µM"}
    ]}
  ]
}
